# Where two headings read alike, the source gives them in different places.
# Experiments:
# [1] = test system: Burkholderia spp.; test: organism not typed; format: cell-based
# [2] = test system: B. cepacia; test: FIC checkerboard assay; format: cell-based
# [3] = test system: P. aeruginosa; test: FIC checkerboard assay; format: cell-based; settings: for MICB / FICB: by checkerboard; for MIC: Pseudomonas aeruginosa, Aztreonam alone (checkerboard with BisEDT), read-out: Drug B MIC; for FICB: Colistin in combination with BisEDT
# [4] = test system: Haemophilus influenzae; test: Broth microdilution MIC against Haemophilus influenzae clinical isolates; settings: for MIC: all evaluated H. influenzae strains, incl. BLNAR, range tested 64-0.06; for MIC50 / MIC90: Haemophilus influenzae
# [5] = test system: A. terreus; test: Broth microdilution antifungal susceptibility (Example 13); format: cell-based; settings: A. terreus MMX 8229
# [6] = test system: A. fumigatus; test: as above; format: cell-based
# [7] = test system: A. flavus; test: as above; format: cell-based
# [8] = test system: A. niger; test: as above; format: cell-based; settings: A. niger ATCC 29508
# [9] = test system: Escherichia coli; test: Broth microdilution MIC (Example 12)
# [10] = test system: Klebsiella pneumoniae; test: Broth microdilution MIC (Example 12)
# [11] = test system: Acinetobacter baumannii; test: Broth microdilution MIC (Example 12)
# [12] = test system: B. cepacia; test: Broth microdilution MIC (Example 10); settings: initial MIC testing
# [13] = test system: Pseudomonas aeruginosa; test: Broth microdilution MIC (Example 12)
# [14] = test system: B. cenocepacia; test: FIC checkerboard assay; format: cell-based; settings: during FIC testing
# [15] = test system: B. cenocepacia; test: Broth microdilution MIC (Example 10); settings: initial MIC testing; B. cenocepacia isolate 0548 (CIP-R)
# [16] = during FIC testing, B. cepacia isolate 0546
molecule,measurement,setting,value
C[C@H]1[C@H](NC(=O)/C(=N\OC(C)(C)C(=O)O)c2csc(N)n2)C(=O)N1S(=O)(=O)O [Aztreonam],MIC,[1]; read-out: Drug B MIC,16 µg/mL
same,MIC,"[2]; Burkholderia cepacia, B. cepacia 546, Aztreonam alone (checkerboard with BisEDT), read-out: Drug B MIC",32 µg/mL
same,MIC,"[2]; Burkholderia cepacia, B. cepacia 1793, Aztreonam alone (panel with BisEDT), read-out: Drug B MIC",128 µg/mL
same,MICB,"[3]; P. aeruginosa 7745, Aztreonam MIC in combination with BisEDT",16 µg/mL
same,MICB,"[3]; P. aeruginosa 9108, Aztreonam MIC in combination with BisEDT",16 µg/mL
same,MIC,[3]; P. aeruginosa 6322,32 µg/mL
same,MIC,[3]; P. aeruginosa 6977,64 µg/mL
same,MIC,[3]; P. aeruginosa 7745,16 µg/mL
same,MIC,[3]; P. aeruginosa 8798,> 256 µg/mL
same,MIC,[3]; P. aeruginosa 9108,16 µg/mL
"bismuth-2,3-butanedithiol, 2-mercaptopyridine N-oxide [BisBDT/PYR]",MIC,[4],< 0.06 µg/mL
"CC[C@H]1OC(=O)[C@H](C)[C@@H](O[C@H]2C[C@@](C)(OC)[C@@H](O)[C@H](C)O2)[C@H](C)[C@@H](O[C@@H]2O[C@H](C)C[C@H](N(C)C)[C@H]2O)[C@](C)(O)C[C@@H](C)CN(C)[C@H](C)[C@@H](O)[C@]1(C)O [azithromycin, Azithromycin]",MIC50,[4],2 µg/mL
same,MIC90,[4],2 µg/mL
OC(Cn1cncn1)(Cn1cncn1)c1ccc(F)cc1F [FLU],MIC2,[5],>64 µg/mL
same,MIC2,[6]; A. fumigatus ATCC 204305,>64 µg/mL
same,MIC2,[6]; A. fumigatus ATCC MYA-3626,>64 µg/mL
same,MIC2,[6]; A. fumigatus MMX 5934,>64 µg/mL
same,MIC2,[6]; A. fumigatus MMX 5938,>64 µg/mL
same,MIC2,[6]; A. fumigatus MMX 5939,>64 µg/mL
same,MIC2,[7]; A. flavus ATCC 22546,>64 µg/mL
same,MIC2,[7]; A. flavus ATCC 204304,>64 µg/mL
same,MIC2,[7]; A. flavus MMX 7935,>64 µg/mL
same,MIC2,[8],>64 µg/mL
Colistin,FICB,"[1]; B. multivorans 1795, FIC of Colistin in combination with BisEDT, per checkerboard row",1
same,MICB,"[3]; P. aeruginosa 6322, Colistin MIC in combination with BisEDT",0.5 µg/mL
same,FICB,[3]; P. aeruginosa 6322,1
same,MICB,"[3]; P. aeruginosa 6977, Colistin MIC in combination with BisEDT",1 µg/mL
same,FICB,[3]; P. aeruginosa 6977,1
same,MICB,"[3]; P. aeruginosa 7745, Colistin MIC in combination with BisEDT",0.5 µg/mL
same,FICB,[3]; P. aeruginosa 7745,1
NCC[C@H](O)C(=O)N[C@@H]1C[C@H](N)[C@@H](O[C@H]2O[C@H](CN)[C@@H](O)[C@H](O)[C@H]2O)[C@H](O)[C@H]1O[C@H]1O[C@H](CO)[C@@H](O)[C@H](N)[C@H]1O [AMK],MIC,"[9]; E. coli ATCC 35218, ESBL",1 µg/mL
same,MIC,"[9]; E. coli ATCC 35218, QC organism (Table 102)",1 µg/mL
same,MIC,"[9]; E. coli ATCC BAA-2471, NDM",64 µg/mL
same,MIC,"[9]; E. coli CDC 114, ESBL/KPC",1 µg/mL
same,MIC,"[9]; E. coli CDC 118, ESBL/NDM",>64 µg/mL
same,MIC,"[9]; E. coli CDC 435, NDM",>64 µg/mL
same,MIC,"[9]; E. coli CDC 451, KPC",4 µg/mL
same,MIC,"[9]; E. coli CDC 503, ESBL/NDM",>64 µg/mL
same,MIC,"[9]; E. coli MMX 5745, KPC",0.5 µg/mL
same,MIC,"[9]; E. coli MMX 5755, ESBL",16 µg/mL
same,MIC,"[9]; E. coli MMX 5756, ESBL",64 µg/mL
same,MIC,"[9]; E. coli MMX 5758, ESBL",1 µg/mL
same,MIC,[2]; [16],64 µg/mL
same,MIC,"[2]; during FIC testing, B. cepacia isolate 1793",32 µg/mL
same,MIC,"[10]; K. pneumoniae ATCC BAA-1705, ESBL/KPC",16 µg/mL
same,MIC,"[10]; K. pneumoniae ATCC BAA-1705, QC organism (Table 102)",16 µg/mL
same,MIC,"[10]; K. pneumoniae CDC 112, KPC",16 µg/mL
same,MIC,"[10]; K. pneumoniae CDC 113, ESBL/KPC",16 µg/mL
same,MIC,"[10]; K. pneumoniae CDC 115, ESBL/KPC",0.5 µg/mL
same,MIC,"[10]; K. pneumoniae CDC 120, ESBL/KPC",16 µg/mL
same,MIC,"[10]; K. pneumoniae CDC 126, ESBL/KPC",2 µg/mL
same,MIC,"[10]; K. pneumoniae CDC 129, ESBL/KPC",32 µg/mL
same,MIC,"[10]; K. pneumoniae CDC 135, ESBL/VIM",16 µg/mL
same,MIC,"[10]; K. pneumoniae CDC 138, ESBL/NDM",>64 µg/mL
same,MIC,"[10]; K. pneumoniae CDC 158, ESBL/NDM/OXA",2 µg/mL
same,MIC,"[10]; K. pneumoniae MMX 9029, ESBL",0.5 µg/mL
same,MIC,"[11]; A. baumannii CDC 273, ESBL/OXA",>64 µg/mL
same,MIC,"[11]; A. baumannii CDC 274, ESBL/OXA",16 µg/mL
same,MIC,"[11]; A. baumannii CDC 275, ESBL/OXA",>64 µg/mL
same,MIC,"[11]; A. baumannii CDC 277, ESBL/OXA",16 µg/mL
same,MIC,"[11]; A. baumannii CDC 284, ESBL/OXA",32 µg/mL
same,MIC,"[11]; A. baumannii CDC 307, OXA",>64 µg/mL
same,MIC,"[11]; A. baumannii CDC 308, ESBL/OXA",>64 µg/mL
same,MIC,"[11]; A. baumannii CDC 311, OXA",>64 µg/mL
same,MIC,"[11]; A. baumannii CDC 312, OXA",1 µg/mL
same,MIC,"[11]; A. baumannii CDC 313, ESBL/OXA",4 µg/mL
same,MIC,"[11]; A. baumannii NCTC 13304, OXA",0.5 µg/mL
same,MIC,[12]; B. cepacia isolate 0546,64 µg/mL
same,MIC,[12]; B. cepacia isolate 1793,64 µg/mL
same,MIC,"[13]; P. aeruginosa CDC 230, VIM/OXA",>64 µg/mL
same,MIC,"[13]; P. aeruginosa CDC 231, KPC/OXA",8 µg/mL
same,MIC,"[13]; P. aeruginosa CDC 241, IMP/OXA",32 µg/mL
same,MIC,"[13]; P. aeruginosa CDC 246, NDM/OXA",>64 µg/mL
same,MIC,"[13]; P. aeruginosa CDC 250, NDM/OXA",>64 µg/mL
same,MIC,"[13]; P. aeruginosa CDC 356, KPC",2 µg/mL
same,MIC,"[13]; P. aeruginosa CDC 439, IMP",>64 µg/mL
same,MIC,"[13]; P. aeruginosa CDC 444, VIM",>64 µg/mL
same,MIC,"[13]; P. aeruginosa CDC 457, VIM",2 µg/mL
same,MIC,"[13]; P. aeruginosa CDC 516, KPC/AmpC",2 µg/mL
same,MIC,"[13]; P. aeruginosa CDC 518, KPC/AmpC",16 µg/mL
"CO/N=C(\C(=O)N[C@@H]1C(=O)N2C(C(=O)O)=C(COC(N)=O)CS[C@H]12)c1ccco1 [cefuroxime, Cefuroxime]",MIC50,[4],4 µg/mL
same,MIC90,[4],16 µg/mL
C[C@H]1[C@H](NC(=O)/C(=N\OC(C)(C)C(=O)O)c2csc(N)n2)C(=O)N1S(=O)(=O)O [AZT],MIC,[14]; B. cenocepacia isolate 0813 (CIP-I),32 µg/mL
same,MIC,[15],64 µg/mL
same,MIC,[2]; [16],32 µg/mL
"CC1(C)S[C@@H]2[C@H](NC(=O)[C@H](N)c3ccccc3)C(=O)N2[C@H]1C(=O)O [ampicillin, Ampicillin]",MIC50,[4],2 µg/mL
same,MIC90,[4],4 µg/mL
"bismuth-1,2-ethanedithiol, 2-mercaptopyridine N-oxide [BisEDT/PYR]",MIC,[4],< 0.06 µg/mL
NC[C@H]1O[C@H](O[C@H]2[C@H](O)[C@@H](O[C@H]3O[C@H](CO)[C@@H](O)[C@H](N)[C@H]3O)[C@H](N)C[C@@H]2N)[C@H](N)C[C@@H]1O [TOB],MIC,[14]; B. cenocepacia isolate 0548 (CIP-R),32 µg/mL
same,MIC,[15],64 µg/mL
same,MIC,[2]; [16],32 µg/mL
same,MIC,[12]; B. cepacia isolate 0546,64 µg/mL
same,MIC,[12]; B. cepacia isolate 1793,64 µg/mL
same,MIC,[12]; B. cepacia isolate 1794,64 µg/mL

# Source: US11464749B2, “Bismuth-thiol compositions and methods of use” (Microbion Corporation, priority 2018, dated 2022)
